Laboratory results as given in DBAASP.
≈ marks a conversion by molar mass, not a printed value. One block for each compound: values may come before it.

Assays:
Test in all cases: ≥ marks a high value that may be exact or a test limit, other limits are often not marked, values filed in µg/mL are converted to µM
[1] = test system: Escherichia coli ATCC 25922
[2] = test system: Staphylococcus aureus ATCC 33591
[3] = test system: Enterococcus faecium ATCC 700221
[4] = test system: Pseudomonas aeruginosa ATCC 27853
[5] = test system: Bacillus subtilis KCTC 1918
[6] = test system: Candida albicans TIMM 1768
[7] = test system: Trichosporon beigelii KCTC 7707
[8] = test system: Pseudomonas aeruginosa KCTC 1637
[9] = test system: Salmonella typhimurium KCTC 1926
[10] = test system: Staphylococcus epidermidis KCTC 3096
[11] = test system: Candida albicans ATCC 2002
[12] = test system: Penicillium urticae IFFI 2001
Bacillus megaterium = test system: Bacillus megaterium
Shigella dysenteriae = test system: Shigella dysenteriae
[13] = test system: Aspergillus flavus IFFI 4015
[14] = test system: Staphylococcus aureus ATCC 2592
[15] = test system: Pseudomonas aeruginosa CMCCB 10104
Klebsiella pneumoniae = test system: Klebsiella pneumoniae
[16] = test system: Staphylococcus aureus ATCC 6538
Escherichia coli AB94012 = test system: Escherichia coli AB94012
[17] = test system: Pseudomonas aeruginosa ATCC 9027
[18] = test system: Pseudomonas aeruginosa AB93066
[19] = test system: Staphylococcus aureus P1374
[20] = test system: Staphylococcus aureus AB94004
[21] = test system: Staphylococcus aureus P1381
[22] = test system: Staphylococcus aureus ATCC 25923
[23] = test system: Pseudomonas aeruginosa NCDC 0105
[24] = test system: Bacillus cereus NCDC 0240
[25] = test system: Listeria monocytogenes ATCC 19111
[26] = test system: Staphylococcus aureus NCDC 0111
[27] = test system: Escherichia coli MTCC 0723
[28] = test system: Salmonella enterica subsp. enterica serovar Typhimurium ATCC 14028
[29] = test system: Acinetobacter johnsonii NCDC 0072
[30] = test system: Staphylococcus aureus ATCC 29213
[31] = test system: Escherichia coli BW25113 ΔwaaG
Escherichia coli BW25113 = test system: Escherichia coli BW25113
[32] = test system: Escherichia coli BW25113 ΔsbmA
[33] = test system: Bacillus subtilis ATCC 6633
[34] = test system: Pseudomonas aeruginosa ATCC BAA-427
[35] = test system: Klebsiella pneumoniae ATCC 27736

MIC [1]: 6.3 µM (≈ 11 µg/mL)
MIC [2]: 3.1 µM (≈ 5.4 µg/mL)
MIC [3]: 1.6 µM (≈ 2.79 µg/mL)
MIC [4]: 12.5 µM (≈ 21.8 µg/mL)
Structure (SMILES): CC[C@H](C)[C@H](NC(=O)[C@H](CCCCN)NC(=O)[C@H](CCCCN)NC(=O)[C@H](CC(C)C)NC(=O)[C@H](CC(C)C)NC(=O)[C@H](CCCCN)NC(=O)[C@H](CCCCN)NC(=O)[C@@H](NC(=O)[C@@H](NC(=O)[C@H](CC(=O)O)NC(=O)[C@H](Cc1ccccc1)NC(=O)[C@H](CC(C)C)NC(=O)CN)C(C)C)[C@@H](C)CC)C(=O)NCC(=O)NCC(=O)N[C@@H](CC(C)C)C(N)=O [GLFDVIKKLLKKIGGL]

MIC [5]: 6.25 µM (≈ 9.91 µg/mL)
MIC [6]: 25 µM (≈ 39.7 µg/mL)
MIC [7]: 25 µM (≈ 39.7 µg/mL)
MIC [8]: 3.12 µM (≈ 4.95 µg/mL)
MIC [9]: 2.21 µM (≈ 3.5 µg/mL)
MIC [10]: 12.5 µM (≈ 19.8 µg/mL)
Structure (SMILES): CC(C)C[C@H](NC(=O)[C@H](Cc1ccccc1)NC(=O)[C@H](CCCCN)NC(=O)[C@@H]1CCCN1C(=O)[C@H](CCCCN)NC(=O)[C@H](CCCCN)NC(=O)[C@H](CCCCN)NC(=O)[C@H](CCCCN)NC(=O)[C@H](CCCCN)NC(=O)[C@H](CCCCN)NC(=O)[C@H](Cc1c[nH]c2ccccc12)NC(=O)[C@@H](N)CCCCN)C(N)=O [KWKKKKKKPKFL]

MIC [11]: 0.422 µM (≈ 1.2 µg/mL)
MIC [12]: 4.22 µM (≈ 12 µg/mL)
MIC (Bacillus megaterium): 4.22 µM (≈ 12 µg/mL)
MIC (Shigella dysenteriae): 4.22 µM (≈ 12 µg/mL)
MIC [13]: 4.22 µM (≈ 12 µg/mL)
MIC [14]: 1.27 µM (≈ 3.6 µg/mL)
MIC [15]: 2.53 µM (≈ 7.2 µg/mL)
MIC (Klebsiella pneumoniae): 1.27 µM (≈ 3.6 µg/mL)
Structure (SMILES): CC[C@H](C)[C@H](NC(=O)[C@H](CCCCN)NC(=O)[C@H](C)NC(=O)CNC(=O)[C@@H](NC(=O)[C@@H](N)CO)[C@@H](C)CC)C(=O)N[C@@H](CC(C)C)C(=O)NCC(=O)NCC(=O)N[C@H](C(=O)N[C@@H](CCCCN)C(=O)N[C@H](C(=O)N[C@@H](Cc1ccccc1)C(=O)N[C@@H](Cc1ccccc1)C(=O)N[C@@H](CCCCN)C(=O)NCC(=O)N[C@@H](C)C(=O)N[C@@H](CC(C)C)C(=O)N[C@@H](CCCCN)C(=O)N[C@@H](CCC(=O)O)C(=O)N[C@@H](CC(C)C)C(=O)N[C@@H](C)C(=O)N[C@@H](CO)C(=O)N[C@H](C(=O)N[C@@H](Cc1ccc(O)cc1)C(=O)N[C@@H](CC(C)C)C(=O)N[C@@H](CCC(N)=O)C(=O)O)[C@@H](C)O)[C@@H](C)O)C(C)C [SIGAKILGGVKTFFKGALKELASTYLQ]

MIC [1]: 31.7 µM (≈ 50 µg/mL)
MIC [16]: 3.97 µM (≈ 6.25 µg/mL)
MIC (Escherichia coli AB94012): 15.9 µM (≈ 25 µg/mL)
MIC [17]: 15.9 µM (≈ 25 µg/mL)
MIC [18]: 31.7 µM (≈ 50 µg/mL)
MIC [19]: 3.97 µM (≈ 6.25 µg/mL)
MIC [20]: 3.97 µM (≈ 6.25 µg/mL)
MIC [21]: 7.93 µM (≈ 12.5 µg/mL)
MIC [22]: 3.97 µM (≈ 6.25 µg/mL)
Structure (SMILES): CC[C@H](C)[C@H](NC(=O)[C@H](CO)NC(=O)[C@H](CCCCN)NC(=O)[C@@H](NC(=O)CNC(=O)[C@H](CCCCN)NC(=O)[C@H](Cc1c[nH]c2ccccc12)NC(=O)[C@H](CC(C)C)NC(=O)[C@H](CCCCN)NC(=O)CNC(=O)[C@H](CC(C)C)NC(=O)[C@@H](NC(=O)[C@@H](N)CO)[C@@H](C)CC)C(C)C)C(=O)N[C@@H](Cc1ccccc1)C(N)=O [SILGKLWKGVKSIF]

MIC [23]: 6 µM (≈ 11 µg/mL)
MIC [24]: 0.8 µM (≈ 1.47 µg/mL)
MIC [25]: 6 µM (≈ 11 µg/mL)
MIC [26]: 0.4 µM (≈ 0.735 µg/mL)
MIC [4]: 6 µM (≈ 11 µg/mL)
MIC [27]: 6 µM (≈ 11 µg/mL)
MIC [28]: 1.5 µM (≈ 2.76 µg/mL)
MIC [29]: 1.5 µM (≈ 2.76 µg/mL)
MIC [30]: 6 µM (≈ 11 µg/mL)
Structure (SMILES): CC[C@H](C)[C@H](NC(=O)[C@H](Cc1c[nH]c2ccccc12)NC(=O)[C@@H](NC(=O)[C@H](Cc1c[nH]c2ccccc12)NC(=O)[C@@H]1CCCN1C(=O)[C@@H](NC(=O)[C@H](C)N)[C@@H](C)CC)[C@@H](C)CC)C(=O)N[C@@H](Cc1c[nH]c2ccccc12)C(=O)N[C@@H](Cc1c[nH]c2ccccc12)C(=O)N[C@@H](CC(C)C)C(=O)N[C@@H](CC(C)C)C(=O)N[C@@H](CCCN=C(N)N)C(=O)N[C@@H](CCCCN)C(=O)NCC(=O)O [AIPWIWIWWLLRKG]

MIC [1]: 1 µM (≈ 2.9 µg/mL)
MIC [31]: 0.5 µM (≈ 1.45 µg/mL)
MIC (Escherichia coli BW25113): 1 µM (≈ 2.9 µg/mL)
MIC [32]: 8 µM (≈ 23.2 µg/mL)
Structure (SMILES): CC[C@H](C)[C@H](NC(=O)[C@H](CCCN=C(N)N)NC(=O)[C@@H](N)CCCN=C(N)N)C(=O)N[C@@H](CCCN=C(N)N)C(=O)N1CCC[C@H]1C(=O)N[C@@H](CCCN=C(N)N)C(=O)N1CCC[C@H]1C(=O)N1CCC[C@H]1C(=O)N[C@@H](CCCN=C(N)N)C(=O)N[C@@H](CC(C)C)C(=O)N1CCC[C@H]1C(=O)N[C@@H](CCCN=C(N)N)C(=O)N1CCC[C@H]1C(=O)N[C@@H](CCCN=C(N)N)C(=O)N1CCC[C@H]1C(=O)N[C@@H](CCCN=C(N)N)C(=O)N1CCC[C@H]1C(=O)N[C@@H](CC(C)C)C(=O)N1CCC[C@H]1C(=O)N[C@@H](Cc1ccc(O)cc1)C(=O)N1CCC[C@H]1C(=O)N[C@@H](CCCN=C(N)N)C(=O)N1CCC[C@H]1C(=O)O [RRIRPRPPRLPRPRPRPLPYPRP]

MIC [33]: 8 µM (≈ 20.5 µg/mL)
MIC [34]: 12 µM (≈ 30.7 µg/mL)
MIC [35]: 6 µM (≈ 15.3 µg/mL)
Structure (SMILES): CC[C@H](C)[C@H](NC(=O)CNC(=O)[C@H](CCCN=C(N)N)NC(=O)[C@H](Cc1ccccc1)NC(=O)[C@@H](NC(=O)[C@H](Cc1cnc[nH]1)NC(=O)[C@H](Cc1cnc[nH]1)NC(=O)[C@H](Cc1ccccc1)NC(=O)[C@@H](N)Cc1ccccc1)[C@@H](C)CC)C(=O)N[C@H](C(=O)N[C@@H](Cc1cnc[nH]1)C(=O)N[C@H](C(=O)NCC(=O)N[C@@H](CCCCN)C(=O)N[C@H](C(=O)N[C@H](C(=O)N[C@@H](Cc1cnc[nH]1)C(=O)N[C@@H](CCCN=C(N)N)C(=O)N[C@@H](CC(C)C)C(=O)N[C@H](C(=O)N[C@H](C(=O)NCC(N)=O)[C@@H](C)O)C(C)C)C(C)C)[C@@H](C)O)C(C)C)C(C)C [FFHHIFRGIVHVGKTVHRLVTG]
